Series [1] concerns durch Acetylcholin hervorgerufenen Bronchialspasmen. Kind of series: Broncholytic effect in guinea pigs, method of Konzett and Rössler (acetylcholine-induced bronchospasm). It counts as in vivo, Meerschweinchen. The conditions noted are these: Cavia porcellus, iv, i.v. injection, dose giving 50 % reduction, read-out: Herabsetzung der durch Acetylcholin hervorgerufenen Bronchialspasmen um 50 %. The procedure: Die broncholytische Wirkung wurde an Meerschweinchen nach der Methode von KONZETT und RÖSSLER (Arch. exp. Path. Pharmakol. 195, 71, (1940)) geprüft. Die Herabsetzung der durch Acetyl- cholin hervorgerufenen Bronchialspasmen um 50 % wurde durch i.v.-Injektion von 1,5 mg/kg des Racemats erreicht, beim (-)-Enantiomeren reichten bereits 1 mg/kg aus, um etwa den gleichen Effekt zu erreichen.

A short description of a further series: Acute toxicity in mice. The note with it: mouse, in vivo, mice of both sexes, 20 g, 14 days observation. The procedure: Für die Bestimmung der akuten Toxizität wurden Mäuse beider Geschlechter mit einem Körpergewicht von 20 g verwendet. 10 Tiere pro Dosis erhielten die Substanz einmalig appliziert. Die Berechnung der DL50, der Dosis, nach deren Verabreichung 50 % der Tiere innerhalb der Beobachtungszeit verstarben, erfolgte i nach der Methode von LITCHFIELD und WILCOXON nach einer Beobachtungszeit von 14 Tagen: • Racemat CL50 p.o.: 545 mg/kg DL50 i.v.: 66 mg/kg, […]

The next series concerns Katze. The series is described as follows: Antitussive effect in the cat, method of Domenjoz. It counts as in vivo. The note with it: dose range 0,5 bis 2 mg/kg i.v.
In a further series the test system is wachen weißen Ratten. The series is described as follows: Cough test in conscious rats, cough provoked by inhaled citric acid spray. The note with it: Rattus norvegicus, po, 0.5 h; male rats, per os as Tylose suspension, 7,5 % citric acid spray over 2 min, cough count 30 min after application, dose halving the number of coughs. The series is classed as in vivo. An excerpt: Die Hustenversuche wurden an wachen weißen Ratten (Geschlecht: männlich) durchgeführt. Die Hustenprovokation erfolgte durch Inhalation eines 7,5 %igen Zitronensäuresprays über 2 Minuten. 10 Tiere pro Dosis erhielten die Substanz als Tyloseaufschwemmung peroral appliziert. Die Bewertung erfolgte aus der durchschnittlichen prozentualen Abnahme der Zahl der Hustenstöße 30 Minuten nach Applikation gegenüber den Leerwerten. (Weitere methodische Angaben: ENGELHORN und PÜSCHMANN, Arzneim.-Forsch. 13, 474-480,(1963)). Die ED50 ist die Dosis, nach deren Verabreichung die Zahl der Hustenstöße durchschnittlich um die Hälfte vermindert wird, die Berechnung erfolgte nach der Methode von Litchfield und Wilcoxon. Es wurde für das Racemat eine ED50 von 3,9 mg/kg per os gefunden.

Setting [2] is: po, single dose p.o., read-out: DL50 p.o.

Structures are written as SMILES. Where two headings read alike, the source gives them in different places.

Turning to `CC(CC1(c2ccccc2)c2ccccc2N(C=O)C1C)N(C)C` (single isomer, unassigned; (-)) [(-)-Enantiomeres, (-)-2,3-Dihydro-2-methyl-3-/2-(dimethylamino)-propyl/-3-phenyl-1H-indol-1-carboxaldehyd], in series [1], the ED50 is around 1 mg/kg. The LD50 at 336 h in “Acute toxicity in mice” (setting [2]) was around 560 mg/kg.

`CC(CC1(c2ccccc2)c2ccccc2N(C=O)C1C)N(C)C` (single isomer, unassigned; (+)) [(+)-Enantiomeres, (+)-2,3-Dihydro-2-methyl-3-[2-(dimethylamino)-propyl]-3-phenyl-1H-indol-1-carboxaldehyd]: the “antitussive Wirkung” value in the series on Katze is “deutliche hustenstillende Wirkung”. Further, the LD50 at 336 h in “Acute toxicity in mice” (setting [2]) is around 500 mg/kg.

For `CC(CC1(c2ccccc2)c2ccccc2N(C=O)C1C)N(C)C` (racemic) [Racemat, Rac. 2,3-Dihydro-2-methyl-3-[2-(dimethylamino)-propyl]-3-phenyl-1H-indol-1-carboxaldehyd], the values for the ED50 (in series [1]; in the series on wachen weißen Ratten) were 1.5 mg/kg and 3.9 mg/kg, respectively. Moreover, the “antitussive Wirkung” value in the series on Katze is listed as “deutliche hustenstillende Wirkung”. For the same molecule, the LD50 at 336 h in “Acute toxicity in mice” (iv, single dose i.v., read-out: DL50 i.v.) is 66 mg/kg; in the series “Acute toxicity in mice” (setting [2]) it was 545 mg/kg.
